{"source": "patent US7572798B2", "about": "“Combi-molecules having signal transduction inhibitory properties and DNA damaging properties” (McGill University, priority 2001, dated 2009)", "key": {"human c-src": {"target": "T1, human c-src (Homo sapiens, UniProt P12931)", "T1 construct": "purchased Upstate NY; host or cells: Baculovirus expression", "T1 sequence (P12931 whole entry)": "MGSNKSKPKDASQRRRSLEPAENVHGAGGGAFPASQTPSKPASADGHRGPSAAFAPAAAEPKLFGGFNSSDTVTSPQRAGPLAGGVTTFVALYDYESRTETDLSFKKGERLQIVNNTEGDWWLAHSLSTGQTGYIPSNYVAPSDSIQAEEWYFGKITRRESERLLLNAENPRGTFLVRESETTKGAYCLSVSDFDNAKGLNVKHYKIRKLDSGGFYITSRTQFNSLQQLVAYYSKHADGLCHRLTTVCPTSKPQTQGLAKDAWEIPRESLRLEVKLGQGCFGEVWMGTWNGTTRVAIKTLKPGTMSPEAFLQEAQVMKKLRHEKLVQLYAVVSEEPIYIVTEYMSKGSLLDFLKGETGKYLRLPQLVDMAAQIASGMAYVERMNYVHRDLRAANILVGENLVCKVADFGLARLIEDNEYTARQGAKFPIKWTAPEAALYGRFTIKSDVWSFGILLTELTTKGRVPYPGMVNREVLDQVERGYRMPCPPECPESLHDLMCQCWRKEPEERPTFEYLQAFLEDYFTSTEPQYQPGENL", "assay": "c-src kinase ELISA", "format": "biochemical", "conditions": "1-100 μM range", "procedure": "(§1) Conditions for the c-src and insulin kinase assays were similar to those of the EGFR kinase assay, with the exception of the addition of 1 mM manganese chloride to the assay buffer, and a final ATP concentration of 100 μM. The reaction was terminated by the addition of 50 μl of a 250 mM solution of EDTA prior to aspiration."}, "[1]": {"target": "T2, cytoplasmic domain of the insulin receptor β subunit (Homo sapiens, UniProt P06213)", "T2 construct": "Baculovirus-expressed cytoplasmic domain of the insulin receptor β subunit; purchased Biomol Research laboratories Inc., USA; host or cells: Baculovirus expression", "T2 sequence (P06213 980-1382 limits assumed)": "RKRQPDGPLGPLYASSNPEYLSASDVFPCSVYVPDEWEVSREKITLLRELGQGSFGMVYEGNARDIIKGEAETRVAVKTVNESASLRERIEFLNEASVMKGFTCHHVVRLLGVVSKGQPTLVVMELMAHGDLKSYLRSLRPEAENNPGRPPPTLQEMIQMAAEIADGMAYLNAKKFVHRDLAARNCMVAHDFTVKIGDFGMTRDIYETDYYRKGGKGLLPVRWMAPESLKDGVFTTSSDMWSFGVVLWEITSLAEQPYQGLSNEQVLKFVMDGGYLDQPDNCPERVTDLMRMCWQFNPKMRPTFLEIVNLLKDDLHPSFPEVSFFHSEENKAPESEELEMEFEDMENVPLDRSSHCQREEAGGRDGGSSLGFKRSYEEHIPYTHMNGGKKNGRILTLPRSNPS", "assay": "insulin receptor kinase ELISA", "format": "biochemical", "conditions": "1-100 μM range", "procedure": "as §1"}, "A431 cells [2]": {"system": "A431 cells", "assay": "SRB growth inhibition assay in A431 cells", "format": "cell-based, human", "conditions": "for IC50: Homo sapiens", "procedure": "All growth inhibitory activities were evaluated using the SRB assay (33). Briefly, following drug treatment, cells were fixed using 50 μL of cold trichloroacetic acid (50%) for 60 min at 4° C., washed five times with tap water, and stained for 30 min at room temperature with SRB (0.4%) dissolved in acetic acid (0.5%). The plates were rinsed five times with 1% acetic acid and allowed to air dry. The resulting colored residue was dissolved in 200 μL of Tris base (10 mM), and the optical density read for each well at 540 nm using a Bio-Rad microplate reader (model 2550). […]\nCell monolayers were continuously exposed to different concentrations of each drug for 72 h. Under short exposure, they were treated with each drug for 2 h and allowed to recover for 72 h in drug-free medium.\nTo study the reversibility of the antiproliferative effects of our compounds, cells were grown to 70% confluence in 96-well plates and subsequently washed twice with PBS, after which they were exposed to serum-free medium for 18 h. Under continuous exposure, the cells were exposed to different concentrations of each drug for 120 h. Under short exposure, they were exposed to each drug for 2 h, after which they were allowed to recover for 120 h in drug free medium. Growth inhibitory activities were evaluated using the SRB assay as described above."}, "[3]": {"system": "NIH3T3 and NIH3T3HER14 cells", "assay": "Alkaline comet assay in isogenic pair NIH3T3 / NIH3T3HER14", "format": "cell-based, mouse", "conditions": "NIH3T3HER14 versus NIH3T3, 30 min", "protocol": "The alkaline comet assay was performed as previously described (26). […] Cell suspensions were diluted to approximately 10^6 cells, and mixed with agarose (1%) in PBS at 37° C. in a 1:10 dilution. The gels were cast on Gelbond strips (Mandel Scientific, Guelph, Canada) using gel casting chambers, as previously described (31), and then immediately placed in a lysis buffer [2.5 M NaCl, 0.1 M tetra-sodium EDTA, 10 mM Tris-base, 1% (w/v) N-lauryl sarcosine, 10% (v/v) DMSO, and 1% (v/v) Triton X-100, pH 10.0]. After being kept on ice for 30 min, the gels were gently rinsed with distilled water and immersed in a second lysis buffer (2.5 M NaCl, 0.1 M tetrasodium EDTA, 10 mM Tris-base) containing 1 mg/ml proteinase K for 60 min at 37° C. Thereafter, the gels were rinsed with distilled water, incubated in alkaline electrophoresis buffer for 30 min at 37° C., and electrophoresed at 300 mA for 60 min. […] Comets were visualized at 330× magnification and DNA damage was quantitated using the Tail Moment parameter (i.e., the distance between the barycenter of the head and the tail of the comet multiplied by the percentage of DNA within the tail of the comet). A minimum of 50 cell comets were analyzed for each sample, using ALKOMET version 3.1 image analysis software, and values are averages of tail moments for the entire cell population per sample."}, "[4]": {"assay": "Degradation in serum-containing cell culture medium (UV, HPLC)", "format": "in vitro ADME", "conditions": "bovine, 37° C.", "procedure": "Thereafter, proteins were precipitated by the addition of acetonitrile (3.5 ml) and the supernatant collected by centrifugation. […] The operating mode was isocratic and two solutions, “A” (50% acetonitrile) and “B” (50% water), were used with a 0.5 ml/min flow rate and a 5 μL injection volume. […] For the rapid quantitation of metabolite, a less polar acetonitrile-water (70:30) eluent was used.\nThe half-life was estimated by a one-phase exponential decay curve-fit method using the GraphPad software package (GraphPad Software, Inc., San Diego, Calif.).\nThe half-life of BJ2000 under physiological conditions was studied by UV-spectrophotometry. BJ2000 was dissolved in a minimum volume of DMSO, diluted with RPMI-1640 supplemented with 10% FBS, and absorbencies read at 340 nm in a UV cell maintained at 37° C. with a circulating water bath. The half-life was estimated by a one-phase exponential decay curve-fit method, using the GraphPad software package (GraphPad software, Inc., San Diego, Calif., USA).\nProteins were thereafter precipitated by the addition of acetonitrile (3.5 ml), and the supernatant collected by centrifugation. […] HPLC analyses were performed on a Hewlett Packard 1090 liquid chromatograph, using a Waters C4 15-μm 300×3.9-mm reverse phase column to characterize and quantitate the products resulting from the degradation of BJ2000. […] The peaks were detected at 250 nm."}, "PDGFR": {"system": "PDGFR", "assay": "PDGF-induced PDGFR autophosphorylation in NIH3T3 cells (Western blot)", "format": "cell-based, mouse", "conditions": "concentrations as high as 30 μM", "protocol": "The inhibition of receptor autophosphorylation in viable cells was determined by anti-phosphotyrosine Western Blots. A431 and NIH3T3 cells were grown to confluence in 6-well plates, washed twice with PBS and exposed to serum-free medium for 18 h. They were subsequently treated with the compounds for 90 min and then with EGF (100 ng/ml) for 10 min (A431 cells), or with PDGF (100 ng/ml) for 10 min (NIH3T3 cells). They were thereafter washed with PBS and re-suspended in cold lysis buffer [50 mM Tris-HCl pH 7.5; 150 mM NaCl; 1% Nonidet P-40, 1 mM EDTA; 5 mM NaF; 1 mM Na3VO4; protease inhibitor tablet (Roche Biochemicals, Laval, Canada)]. The lysates were kept on ice for 30 min and collected by centrifugation at 10,000 rpm for 20 min at 4° C. Protein concentrations were determined against a standardized control using the Bio-Rad protein assay kit (Bio-Rad Laboratories, Hercules, Calif.). Equal amounts of protein (40 μg/mL) from each cell lysate were added to an 8% SDS-polyacrylamide gel electrophoresis (SDS-PAGE) and transferred to a polyvinylidene difluoride membrane (PVDF) (Millipore, Bedford, Mass.). Non-specific binding on the membrane was minimized with a blocking buffer containing non-fat dry milk (3%) in PBS. […] Band intensities were measured using the SynGene GeneTools software package (Cambridge, UK)."}, "EGFR [5]": {"target": "T3, EGFR (Homo sapiens, UniProt P00533)", "T3 sequence (P00533 25-1210)": "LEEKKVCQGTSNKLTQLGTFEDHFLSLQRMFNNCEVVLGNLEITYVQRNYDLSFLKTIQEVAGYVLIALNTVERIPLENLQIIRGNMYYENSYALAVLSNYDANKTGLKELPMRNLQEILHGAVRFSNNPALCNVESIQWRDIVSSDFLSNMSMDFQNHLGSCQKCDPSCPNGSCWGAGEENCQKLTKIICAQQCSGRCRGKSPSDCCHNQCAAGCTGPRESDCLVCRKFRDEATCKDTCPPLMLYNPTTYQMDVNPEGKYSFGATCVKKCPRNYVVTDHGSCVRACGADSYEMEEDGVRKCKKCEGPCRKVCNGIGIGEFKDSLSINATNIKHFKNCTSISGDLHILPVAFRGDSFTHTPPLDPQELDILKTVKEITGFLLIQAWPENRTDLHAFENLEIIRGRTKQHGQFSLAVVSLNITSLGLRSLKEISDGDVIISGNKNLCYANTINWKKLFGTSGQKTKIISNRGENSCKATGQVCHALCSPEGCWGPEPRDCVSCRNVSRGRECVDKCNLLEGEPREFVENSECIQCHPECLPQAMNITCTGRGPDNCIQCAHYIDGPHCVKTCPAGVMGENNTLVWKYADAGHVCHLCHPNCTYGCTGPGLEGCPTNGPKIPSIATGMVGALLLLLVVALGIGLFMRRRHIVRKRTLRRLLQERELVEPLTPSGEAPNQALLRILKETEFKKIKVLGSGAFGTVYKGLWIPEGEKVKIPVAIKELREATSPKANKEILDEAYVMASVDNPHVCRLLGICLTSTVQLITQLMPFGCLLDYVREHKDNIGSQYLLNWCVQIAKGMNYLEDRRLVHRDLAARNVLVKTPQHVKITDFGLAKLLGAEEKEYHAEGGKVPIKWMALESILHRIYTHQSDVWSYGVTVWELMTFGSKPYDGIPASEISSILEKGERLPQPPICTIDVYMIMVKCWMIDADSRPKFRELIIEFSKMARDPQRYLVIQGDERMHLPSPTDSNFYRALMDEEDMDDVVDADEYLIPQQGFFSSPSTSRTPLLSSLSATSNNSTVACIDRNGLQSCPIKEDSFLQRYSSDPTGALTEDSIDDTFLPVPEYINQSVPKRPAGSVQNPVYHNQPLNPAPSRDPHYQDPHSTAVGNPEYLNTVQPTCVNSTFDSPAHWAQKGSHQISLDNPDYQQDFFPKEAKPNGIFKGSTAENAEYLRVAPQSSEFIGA", "assay": "Reverse EGFR autophosphorylation (reversibility) assay in A431 cells", "format": "cell-based", "conditions": "A431, 30 μM", "procedure": "To test this hypothesis, the reversibility assay (40, 41) was used, according to which the cells are treated with the drug for 90 min after which the culture medium is repeatedly removed and replaced 3 times, followed by the measurement of EGFR autophosphorylation.\nA431 cells were grown to confluence in 6-well plates and then incubated in serum-free medium for 18 h (41). Duplicate sets of cells were then treated with 30 μM of each compound for 90 min. One set of cells was then stimulated with EGF (100 ng/ml) for 10 min and extracts were made as described under the Western blotting procedure above. The other set of cells was washed free of each compound with warmed serum-free media and incubated for 2 h. Thereafter, the cells were washed, incubated for another 2 h, washed again, and then incubated for a further 4 h. This set of cells was then stimulated with EGF and extracts were prepared as for the first set."}, "NIH3T3HER14 cells": {"system": "NIH3T3HER14 cells", "assay": "Growth factor-stimulated proliferation in NIH3T3HER14 cells (SRB)", "format": "cell-based, mouse", "procedure": "To study the effect of our compounds on growth factors stimulated proliferation, cells were grown to 70% confluence in 48-well plates and washed twice with PBS, after which they were exposed to serum-free medium for 18 h. The cells were then exposed to each drug and growth factors (EGF, TGFα, PDGF or serum) for 72 h and cell growth measured using the sulforhodamine B (SRB) assay (33). Briefly, following drug treatment, cells were fixed using 50 μl of cold trichloroacetic acid (50%) for 60 min at 4° C., washed five times with tap water, and stained for 30 min at room temperature with SRB (0.4%) dissolved in acetic acid (0.5%). The plates were rinsed five times with 1% acetic acid and allowed to air dry. […] Each point represents the average of at least two independent experiments run in triplicate."}, "[6]": {"target": "T4, HER2 (erbB2) gene product p185neu (Homo sapiens, UniProt P04626)", "T4 construct": "heregulin (HRG)-stimulated phosphorylation of the HER2 (erbB2) gene product; endogenous in cells", "T4 sequence (P04626 23-1255)": "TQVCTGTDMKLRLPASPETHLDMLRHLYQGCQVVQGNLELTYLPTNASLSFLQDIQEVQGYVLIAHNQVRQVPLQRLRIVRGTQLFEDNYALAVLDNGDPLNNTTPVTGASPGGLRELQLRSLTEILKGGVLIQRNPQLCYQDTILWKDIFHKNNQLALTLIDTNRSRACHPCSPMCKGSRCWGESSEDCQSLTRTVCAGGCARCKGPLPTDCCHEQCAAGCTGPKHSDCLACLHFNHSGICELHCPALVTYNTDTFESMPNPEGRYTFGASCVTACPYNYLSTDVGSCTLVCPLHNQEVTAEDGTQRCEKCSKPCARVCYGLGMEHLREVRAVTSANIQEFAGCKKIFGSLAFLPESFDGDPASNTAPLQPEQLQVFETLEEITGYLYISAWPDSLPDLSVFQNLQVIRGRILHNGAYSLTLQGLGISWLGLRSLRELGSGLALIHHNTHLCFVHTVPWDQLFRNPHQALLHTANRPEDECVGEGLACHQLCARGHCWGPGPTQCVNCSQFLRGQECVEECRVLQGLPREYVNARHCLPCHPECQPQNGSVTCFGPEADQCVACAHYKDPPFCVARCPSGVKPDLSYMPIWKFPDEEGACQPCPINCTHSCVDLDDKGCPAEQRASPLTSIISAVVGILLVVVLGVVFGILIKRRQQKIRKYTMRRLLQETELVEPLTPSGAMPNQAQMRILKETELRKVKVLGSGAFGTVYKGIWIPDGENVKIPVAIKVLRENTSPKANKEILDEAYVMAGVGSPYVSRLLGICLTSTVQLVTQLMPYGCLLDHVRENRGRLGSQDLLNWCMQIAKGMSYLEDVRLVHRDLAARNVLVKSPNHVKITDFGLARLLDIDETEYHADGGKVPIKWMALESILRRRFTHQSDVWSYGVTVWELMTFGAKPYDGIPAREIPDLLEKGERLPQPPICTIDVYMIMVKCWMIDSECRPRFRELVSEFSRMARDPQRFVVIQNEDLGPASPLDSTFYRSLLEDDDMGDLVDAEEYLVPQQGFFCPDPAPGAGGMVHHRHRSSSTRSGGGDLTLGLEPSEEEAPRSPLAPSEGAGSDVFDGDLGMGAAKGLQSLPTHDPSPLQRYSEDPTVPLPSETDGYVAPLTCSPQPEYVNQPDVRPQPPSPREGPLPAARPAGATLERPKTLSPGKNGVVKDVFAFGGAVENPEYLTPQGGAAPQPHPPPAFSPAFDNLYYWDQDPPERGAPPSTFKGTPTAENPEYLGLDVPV", "assay": "Heregulin-stimulated phosphorylation of p185neu in MDA-MB453 cells", "format": "cell-based"}, "A431 cells [7]": {"system": "A431 cells", "assay": "Alkaline comet assay for DNA damage in A431 cells", "conditions": "A431, 30 min or 2 h exposure", "protocol": "A431 cells were exposed to drugs for 30 min or 2 h, and harvested with trypsin-EDTA. The cells were subsequently collected by centrifugation and re-suspended in PBS. The resulting cell suspension was diluted to approximately 10^6 cells, and mixed with agarose (1%) in PBS at 37° C. in a 1:10 dilution. The gels were cast on Gelbond strips (Mandel Scientific, Guelph, Canada) using gel casting chambers, as previously described (32), then immediately placed into a lysis buffer [2.5 M NaCl, 0.1 M tetra-sodium EDTA, 10 mM tris-base, 1% (w/v) N-lauryl sarcosine, 10% (v/v) DMSO and 1% (v/v) Triton X-100]. After being kept on ice for 30 min, the gels were gently rinsed with distilled water and then immersed in a second lysis buffer [2.5 M NaCl, 0.1 M tetra-sodium EDTA, 10 mM tris-base], containing 1 mg/ml proteinase K for 60 min at 37° C. Thereafter, the gels were rinsed with distilled water, incubated in alkaline electrophoresis buffer for 30 min at 37° C., and electrophoresed at 300 mA for 60 min. The gels were subsequently rinsed with distilled water and placed into 1 M ammonium acetate for 30 min. They were further soaked in 100% ethanol for 2 h, dried overnight and subsequently stained with SYBR Gold ( 1/10000 dilution of stock supplied from Molecular Probes, OR) for 20 min. For evaluation of comets, DNA damage was assessed using the Tail Moment parameter (i.e. the product of the distance between the barycentres of the head and the tail of the comet. A minimum of 50 cell comets were analyzed for each sample using ALKOMET v3.1 software, and values are an average of tail moments for the entire cell population.\nCell suspensions were diluted to approximately 10^6 cells, and mixed with agarose (1%) in PBS at 37° C. in a 1:10 dilution. The gels were cast on Gelbond strips (Mandel Scientific, Guelph, Canada) using gel casting chambers, as previously described (31), and then immediately placed in a lysis buffer [2.5 M NaCl, 0.1 M tetra-sodium EDTA, 10 mM Tris-base, 1% (w/v) N-lauryl sarcosine, 10% (v/v) DMSO, and 1% (v/v) Triton X-100, pH 10.0]. After being kept on ice for 30 min, the gels were gently rinsed with distilled water and immersed in a second lysis buffer (2.5 M NaCl, 0.1 M tetrasodium EDTA, 10 mM Tris-base) containing 1 mg/ml proteinase K for 60 min at 37° C. Thereafter, the gels were rinsed with distilled water, incubated in alkaline electrophoresis buffer for 30 min at 37° C., and electrophoresed at 300 mA for 60 min. The gels were subsequently rinsed with distilled water and placed in 1 M ammonium acetate for 30 min. They were soaked in 100% ethanol for 2 h, dried overnight, and subsequently stained with SYBR Gold ( 1/10000 dilution of stock supplied from Molecular Probes, Eugene, Oreg.) for 20 min. Comets were visualized at 330× magnification and DNA damage was quantitated using the Tail Moment parameter (i.e., the distance between the barycenter of the head and the tail of the comet multiplied by the percentage of DNA within the tail of the comet). A minimum of 50 cell comets were analyzed for each sample, using ALKOMET version 3.1 image analysis software, and values are averages of tail moments for the entire cell population per sample."}, "EGFR [8]": {"target": "T3, EGFR", "assay": "EGF-induced EGFR autophosphorylation in A431 cells (Western blot)", "protocol": "The inhibition of receptor autophosphorylation in viable cells was determined by anti-phosphotyrosine Western Blots. A431 cells were pre-incubated overnight for 24 h at 37° C. in a 6-well plate (1×10^6) with 0.1% serum, after which they were exposed to a range of doses for each drug for 2 h and subsequently treated with 50 ng/mL EGF for 30 min at 37° C. The cells were thereafter washed with PBS and re-suspended in cold lysis buffer [50 mM Tris-HCl pH 7.5; 150 mM NaCl; 1% NP40, 1 mM EDTA; 5 mM NaF; 1 mM Na3VO4; protease inhibitor tablet (Roche Biochemicals, Laval, Canada)]. The lysates were kept on ice for 30 min and collected by centrifugation at 10 000 rpm for 20 min at 4° C. The protein concentrations were determined against a standardized control using the Bio-Rad protein assay kit (Bio-Rad Laboratories, Hercules, Calif.). […] Non-specific binding on the PVDF membrane was minimized with a blocking buffer containing nonfat dry milk (3%) in PBS. The membrane was blotted with primary antibodies [either antiphosphotyrosine antibody (UBI, Lake Placid, N.Y.) for the detection of phosphotyrosine, or anti-EGFR (Neomarkers, Fremont, Calif.) for the determination of corresponding receptor levels], and anti-β-tubulin (Neomarkers, Fremont, Calif.) for the detection of equal loading. Thereafter, blots were incubated with HRP-goat anti-mouse antibody (1:200 dilution; Bio-Rad Laboratories, Hercules, Calif.) and the bands visualized with an enhanced chemiluminescence system (Amersham Pharmacia Biotech, Buckinghamshire, UK). Band intensities were measured using the SynGene GeneTools software package (Cambridge, UK).\nThe inhibition of receptor autophosphorylation in viable cells was determined by anti-phosphotyrosine Western Blots. […] Protein concentrations were determined against a standardized control using the Bio-Rad protein assay kit (Bio-Rad Laboratories, Hercules, Calif.). […] Band intensities were measured using the SynGene GeneTools software package (Cambridge, UK)."}}, "note": "Entries after “also recorded” stand apart in the source; their conditions may differ. Like-named read-outs stand apart in the source and are kept apart here."}
{"smiles": "CNN=Nc1ccc2ncnc(Nc3cccc(Cl)c3)c2c1", "note": "[BJ2000]", "values": [{"measurement": "effect on c-src TK activity", "setting": "human c-src", "value": "did not block c-src TK activity"}, {"measurement": "effect on insulin receptor TK", "setting": "[1]", "value": "nor did it exert any effect on insulin receptor TK"}, {"measurement": "fold more potent than metabolite FD105", "setting": "A431 cells [2]; 120 h continuous, SRB, A431", "value": "≈ 3 fold"}, {"measurement": "IC50", "setting": "A431 cells [2]; A-431, 120 h, read-out: IC50 growth inhibition", "value": 15, "unit": "µM"}, {"measurement": "IC50", "setting": "A431 cells [2]; A-431, read-out: IC50 growth inhibition", "value": 38, "unit": "µM"}, {"measurement": "fold higher levels of DNA damage in the EGFR transfectant", "setting": "[3]", "value": "more than 2 fold"}, {"measurement": "half-life", "setting": "[4]; serum-containing cell culture medium (RPMI with 10% serum), RPMI with 10% serum, read-out: half-life (t1/2) by UV spectrophotometry at 340 nm", "value": 34, "unit": "min"}, {"measurement": "half-life at 625 µM", "setting": "[4]; RPMI-1640 with 10% FBS, read-out: half-life (t1/2) by HPLC analysis", "value": 75, "unit": "min"}, {"measurement": "effect on PDGF-induced PDGFR autophosphorylation", "setting": "PDGFR", "value": "no effect"}, {"measurement": "EGF-dependent EGFR autophosphorylation immediately after drug exposure", "setting": "EGFR [5]; 90 min", "value": "completely suppressed"}, {"measurement": "EGFR autophosphorylation activity restored", "setting": "EGFR [5]; 8 h post-treatment in drug-free medium after repeated washouts", "value": 40, "unit": "%"}, {"measurement": "concentration giving 100% growth inhibition", "setting": "NIH3T3HER14 cells; EGF or TGFα-induced proliferation, NIH3T3HER14, 72 h", "value": 1, "unit": "µM"}, {"measurement": "concentration giving 100% inhibition", "setting": "NIH3T3HER14 cells; PDGF-stimulated growth, NIH3T3HER14, 72 h", "value": "approximately 30 μM"}, {"measurement": "fold less effective in inhibiting PDGF-stimulated growth", "setting": "NIH3T3HER14 cells; versus EGF or TGFα-induced proliferation, NIH3T3HER14", "value": "approximately 30 fold"}, {"measurement": "effect on heregulin (HRG)-stimulated phosphorylation of p185neu", "setting": "[6]", "value": "able to block"}, {"measurement": "DNA damage (comet tail moment)", "setting": "A431 cells [7]", "value": "induced dose-dependent DNA damage; also recorded: induced significant DNA damage"}, {"measurement": "IC50", "setting": "EGFR [8]", "value": "~6", "unit": "µM"}]}
